The values that follow come from paper PMC5500849, “Cobamide-mediated enzymatic reductive dehalogenation via long-range electron transfer” (Nature Communications, 2017).

Test [1] addresses T1, PceA (PceA–Strep) (Sulfurospirillum multivorans, UniProt O68252).
T1 construct: C-terminal Strep-tag II, homologously produced in S. multivorans GD21 (genomic pceAB), Strep-Tactin purified; crystals from mature enzyme (Tat signal peptide removed); holo with norpseudo-B12 and two [4Fe-4S] clusters
In words: crystal structure, soaked crystal. The test is classed as binding. The note with it: [Co(II)] state.

The target in test [2] is T1, PceA (PceA–Strep). Nature of the test: inhibition of 4-BP dehalogenation. The note with it: 47 nM enzyme, dark 2 min; covalent, alkylates cobamide [Co(I)], reversed by light. The test is classed as biochemical.

SMILES strings stand for the structures.

T1 sequence (O68252 38-501): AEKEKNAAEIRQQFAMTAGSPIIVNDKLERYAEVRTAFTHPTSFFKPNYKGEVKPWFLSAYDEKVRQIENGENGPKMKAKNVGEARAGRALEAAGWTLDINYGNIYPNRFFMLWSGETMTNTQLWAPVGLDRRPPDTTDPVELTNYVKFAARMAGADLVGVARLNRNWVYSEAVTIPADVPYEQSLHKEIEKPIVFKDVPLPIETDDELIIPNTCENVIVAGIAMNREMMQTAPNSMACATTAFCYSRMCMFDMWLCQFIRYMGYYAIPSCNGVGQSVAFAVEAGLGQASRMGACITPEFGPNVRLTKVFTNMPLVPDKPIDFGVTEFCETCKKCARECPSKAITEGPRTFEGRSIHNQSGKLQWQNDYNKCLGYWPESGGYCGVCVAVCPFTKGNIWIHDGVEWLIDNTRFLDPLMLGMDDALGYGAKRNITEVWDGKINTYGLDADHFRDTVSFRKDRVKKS

On to `Oc1cccc(Br)c1` [3-BP], for which, on PceA (PceA–Strep) [1] (enzyme with methoxybenzimidazolyl-norcobamide instead of norpseudo-B12), the “crystal structure, soaked crystal” value is 5MAA (3-BP).
For `Oc1cccc(Cl)c1` [3-CP], at PceA (PceA–Strep) [1] (active site, not dehalogenated), the “crystal structure, soaked crystal” value was 5M8Y (3-CP).
Same read-out and setting: next, `Oc1ccc(Cl)cc1` [4-CP]: 5M8W (4-CP).
As to `Oc1ccc(I)cc1` [4-IP], at PceA (PceA–Strep) [1] (active site, also surface groove site), the “crystal structure, soaked crystal” value is recorded as 5MA2 (4-IP).
On to `CCCI` [propyl iodide], for which, at PceA (PceA–Strep) [2], the “complete inhibition at 100 μM” value was “complete inhibition of the PceA-mediated 4-BP dehalogenation by propyl iodide in the dark”.
